pIC50: −log10 of the molar value. Activity calls are given as the source filed them. The calls are words filed in the database; no cut-off is given here.
Tested on: U2OS
Assay: Cytotoxicity against human U2OS cells assessed as reduction in cell viability incubated for 48 hrs by MTT assay
Type: functional, cell-based
Settings: not given

| SMILES | pIC50 |
| --- | --- |
| O=C(Nc1cc(C(F)(F)F)cc(C(F)(F)F)c1)c1cc(Cl)ccc1O [IMD-0354] | 4.29 |

Tested on: not listed separately
Assay: Cytotoxicity against human MIHA cells assessed as reduction in cell viability at 40 uM incubated for 48 hrs by MTT assay
Type: cell-based
Settings: not given

| SMILES | Activity |
| --- | --- |
| CN(C)c1ccc(C(=O)n2ncc3c(NC(=O)c4cc(Cl)ccc4O)cccc32)cc1 | Non-Toxic |
| O=C(Nc1cccc2[nH]ncc12)c1cc(Cl)ccc1O | Non-Toxic |
| O=C(Nc1ccc2[nH]ncc2c1)c1cc(Cl)ccc1O | Non-Toxic |
| O=C(O)CCn1ncc2c(NC(=O)c3cc(Cl)ccc3O)cccc21 | Non-Toxic |
| CN(C)C(=O)n1ncc2c(NC(=O)c3cc(Cl)ccc3O)cccc21 | Non-Toxic |
| COC(=O)CCn1ncc2c(NC(=O)c3cc(Cl)ccc3O)cccc21 | Non-Toxic |
| O=C(Nc1cccc2cn[nH]c12)c1cc(Cl)ccc1O | Non-Toxic |
| O=C(Nc1ccc2[nH]ccc2c1)c1cc(Cl)ccc1O | Non-Toxic |
| CN(C)C(=O)Cn1cc2c(NC(=O)c3cc(Cl)ccc3O)cccc2n1 | Non-Toxic |
| COC(=O)CCn1cc2c(NC(=O)c3cc(Cl)ccc3O)cccc2n1 | Non-Toxic |
| O=C(Nc1cccc2[nH]ccc12)c1cc(Cl)ccc1O | Non-Toxic |
| CN(C)C(=O)Cn1ncc2c(NC(=O)c3cc(Cl)ccc3O)cccc21 | Non-Toxic |
| O=C(Nc1cccc2cc[nH]c12)c1cc(Cl)ccc1O | Non-Toxic |
| O=C(Nc1cccc2c1cnn2C(=O)c1c(Cl)cccc1Cl)c1cc(Cl)ccc1O | Non-Toxic |
| O=C(Nc1cc(C(F)(F)F)cc(C(F)(F)F)c1)c1cc(Cl)ccc1O [IMD-0354] | Non-Toxic |
| O=C(Nc1ccc2cn[nH]c2c1)c1cc(Cl)ccc1O | Non-Toxic |
| O=C(O)CCn1cc2c(NC(=O)c3cc(Cl)ccc3O)cccc2n1 | Non-Toxic |
| O=C(Nc1cccc2nn(CCO)cc12)c1cc(Cl)ccc1O | Non-Toxic |
| COc1ccc(NC(=O)n2ncc3c(NC(=O)c4cc(Cl)ccc4O)cccc32)cc1 | Non-Toxic |
| O=C(Nc1cccc2c1cnn2CCO)c1cc(Cl)ccc1O | Non-Toxic |
| O=C(Nc1cccc2c1cnn2C(=O)N1CCOCC1)c1cc(Cl)ccc1O | Non-Toxic |

Target: Focal adhesion kinase 1 (Homo sapiens) (UniProt Q05397)
Assay: Inhibition of FAK phosphorylation in human MG-63 cells at 5 to 20 uM incubated for 48 hrs by Western blot analysis
Type: cell-based
Settings: dose 5-20 µM

Sequence of Focal adhesion kinase 1 (Homo sapiens) (Q05397 2-1052 limits assumed): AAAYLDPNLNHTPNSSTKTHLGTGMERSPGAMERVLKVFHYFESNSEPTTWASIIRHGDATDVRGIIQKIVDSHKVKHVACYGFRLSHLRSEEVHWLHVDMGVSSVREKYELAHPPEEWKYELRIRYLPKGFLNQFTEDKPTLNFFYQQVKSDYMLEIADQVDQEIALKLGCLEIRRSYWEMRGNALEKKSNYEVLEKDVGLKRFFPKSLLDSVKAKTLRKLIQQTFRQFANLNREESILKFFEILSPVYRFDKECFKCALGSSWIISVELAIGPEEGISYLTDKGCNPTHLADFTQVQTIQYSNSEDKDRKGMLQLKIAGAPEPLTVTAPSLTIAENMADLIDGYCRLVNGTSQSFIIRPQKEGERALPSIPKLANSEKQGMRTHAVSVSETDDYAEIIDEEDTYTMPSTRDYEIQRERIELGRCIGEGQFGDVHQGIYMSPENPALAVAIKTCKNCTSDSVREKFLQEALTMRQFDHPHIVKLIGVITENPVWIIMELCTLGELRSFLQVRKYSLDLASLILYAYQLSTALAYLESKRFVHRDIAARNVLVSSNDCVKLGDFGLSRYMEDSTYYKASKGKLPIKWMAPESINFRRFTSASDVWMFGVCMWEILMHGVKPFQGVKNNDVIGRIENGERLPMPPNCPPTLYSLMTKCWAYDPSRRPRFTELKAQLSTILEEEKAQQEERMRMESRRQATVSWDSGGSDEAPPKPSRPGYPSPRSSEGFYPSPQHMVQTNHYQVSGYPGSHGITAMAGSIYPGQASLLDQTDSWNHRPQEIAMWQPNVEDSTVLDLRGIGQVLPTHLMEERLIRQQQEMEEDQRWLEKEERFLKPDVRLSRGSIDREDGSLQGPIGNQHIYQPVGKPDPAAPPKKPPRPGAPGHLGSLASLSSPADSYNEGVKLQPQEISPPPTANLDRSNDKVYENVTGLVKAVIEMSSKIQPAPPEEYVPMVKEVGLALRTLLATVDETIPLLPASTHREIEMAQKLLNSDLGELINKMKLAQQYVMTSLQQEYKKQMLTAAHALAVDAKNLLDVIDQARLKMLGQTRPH

| inhibition | SMILES |
| --- | --- |
| Active | O=C(Nc1ccc2c(cnn2C(=O)c2ccccc2)c1)c1cc(Cl)ccc1O |

Target: Focal adhesion kinase 1 (Homo sapiens) (UniProt Q05397)
Assay: Inhibition of FAK phosphorylation in human U2OS cells at 5 to 20 uM incubated for 48 hrs by Western blot analysis
Type: cell-based
Settings: dose 5-20 µM

| inhibition | SMILES |
| --- | --- |
| Active | O=C(Nc1ccc2c(cnn2C(=O)c2ccccc2)c1)c1cc(Cl)ccc1O |

Tested on: MG-63
Assay: Cytotoxicity against human MG-63 cells assessed as reduction in cell viability incubated for 48 hrs by MTT assay
Type: functional, cell-based
Settings: MG-63, 48 h

| SMILES | pIC50 |
| --- | --- |
| O=C(Nc1cc(C(F)(F)F)cc(C(F)(F)F)c1)c1cc(Cl)ccc1O [IMD-0354] | 4.31 |

Tested on: not listed separately
Assay: Cytotoxicity against human MIHA cells assessed as reduction in cell viability incubated for 48 hrs by MTT assay
Type: cell-based
Settings: not given

| SMILES | pIC50 |
| --- | --- |
| O=C(Nc1cc(C(F)(F)F)cc(C(F)(F)F)c1)c1cc(Cl)ccc1O [IMD-0354] | < 4.00 |
